ChEMBL document CHEMBL2146428, “Luminmycins A-C, cryptic natural products from Photorhabdus luminescens identified by heterologous expression in Escherichia coli” (J Nat Prod, 2012)
Converted amounts (≈) assume the structure as drawn. The source made the active and inactive calls. No cut-off for these calls is given here.

Experiments:
[1] = test system: HCT-116; experiment: Cytotoxicity against human HCT116 cells assessed as cell viability after 5 days by MTT assay relative to control; type: functional, cell-based; conditions: HCT-116, 120 h
[2] = test system: Candida albicans; experiment: Antifungal activity against Candida albicans after 16 hrs by serial dilution method; type: functional
[3] = test system: HCT-116; experiment: Cytotoxicity against human HCT116 cells assessed as cell viability at 100 ug/mL after 5 days by MTT assay relative to control; type: functional, cell-based

| Structure (SMILES) | IC50 [1] [nM] | Activity [2] | Activity [3] | MIC [2] [µg/mL] |
| --- | --- | --- | --- | --- |
| CCCCCCC/C=C/C=C/C(=O)N[C@H](C(=O)N[C@H]1CCCCNC(=O)/C=C/[C@H](C)NC1=O)[C@@H](C)O [LUMINMYCIN A] | 91.8 | inactive | – | – |
| CCCCCCC/C=C/C=C/C(=O)N[C@H](C(=O)N[C@@H](CCCCN)C(=O)N[C@@H](C)C(O)CC(=O)O)[C@@H](C)O (stereo partly specified) | – | inactive | inactive | – |
| CCCCCCC/C=C/C=C/C(=O)N[C@H](C(=O)N[C@H]1C[C@@H](O)CCNC(=O)/C=C/[C@H](C)NC1=O)[C@@H](C)O [GLIDOBACTIN A] | 33.3 | – | – | 2 (≈ 3.84 µM) |
